Experimental data from patent US9283244B2, “Treatment of cancer by inhibiting activity or expression of late SV-40 factor” (Virginia Commonwealth University, priority 2010, dated 2016).
Blank lines part the entries; values can stand above or below the compound they belong to.

Assays:
QGY-7703 cells [1] = assay: Matrigel invasion assay, QGY-7703 cells; type: cell-based, human
Procedure: (§1) FIGS. 12A-F. Inhibition of CD44 and c-Met by SU11274 blocks LSF function. A. LSF-17 cells were treated with normal IgG or anti-CD44 antibody and then subjected to Matrigel invasion assay. (B, C) Cell viability (MTT) assay of LSF-17 (B) and QGY-7703 (C) cells treated with SU11274 (5 μM) for the indicated time period. (D, E) Matrigel invasion assays of LSF-17 (D) and QGY-7703 (E) cells treated with SU11274 (5 μM). For SU11274 removal, cells were treated with SU11274 for 24 h before seeding them in the invasion chamber in SU11274-free condition. For A-E, data represent mean±SEM. F. HepG3 cells were untreated or treated with OPN (100 ng/ml) and with SU11274 (5 μM) for 24 h and the expression of the indicated proteins were detected by Western blot analysis. Asterisk (*) represents statistically significant difference (p<0.05).
(§2) FIGS. 13A-F. Genetic inhibition of c-Met by shRNA blocks LSF function. […] A. Expression of the indicated proteins was detected in the indicated cells by Western blot analysis. […] D. QGY-7703 cells were transfected with control scrambled siRNA (siCon) or c-Met siRNA (siMet) and cell viability was measured by MTT assay. […] F. The expression of the indicated proteins was detected in the indicated cells by Western blot analysis. […]
(§3) Primary rat hepatocytes were isolated and cultured as described (19). […] Cell viability was determined by standard MTT assays as described (5). […]

Akt = assay: Western blot of Akt activation in HepG3 cells; type: cell-based, human
Procedure: as §1
(§4) Preparation of whole cell lysates and Western blot analyses were performed as described (5). The primary antibodies used were anti-LSF (1:2,000; mouse monoclonal; BD Biosciences), anti-pERK (1:2,000; rabbit polyclonal; Cell Signaling), anti-ERK (1:2,000; rabbit polyclonal; Cell Signaling), anti-pAKT (1:1,000; rabbit polyclonal; Cell Signaling) and anti-AKT (1:1,000; rabbit polyclonal; Cell Signaling). Blots were stripped and normalized by re-probing with anti-β-tubulin (1:1,000; mouse monoclona; Sigma).
Treatment with OPN increased p-Akt/Akt ratio to 1.42 which was decreased to 0.63 upon SU11274 treatment.

LSF-17 cells [2] = assay: Matrigel invasion assay, LSF-17 cells; type: cell-based, human
Procedure: FIGS. 8A-D. Inhibition of OPN abrogates LSF-induced tumorigenesis and metastasis. The indicated clones were subcutaneously implanted in athymic nude mice. A. Tumor volume and tumor weight were measured 3 weeks after implantation. B. Graphical representation of metastatic lung nodules in the animals injected with the LSF-17consh-15 and LSF-17-OPNsh-18 clones via tail vein. The data represent mean±SEM. Inset: H&E sections of lungs of animals injected with the indicated clones. C. Parental HepG3 cells were treated with conditioned media from Control-8 or LSF-17 clone of HepG3 cells and then subjected to matrigel invasion. D. Matrigel invasion assay using LSF17 clone of HepG3 cells in the presence of neutralizing antibodies. Integrin: anti-αvβ3 integrin antibody. […]
FIGS. 12A-F. Inhibition of CD44 and c-Met by SU11274 blocks LSF function. […] F. HepG3 cells were untreated or treated with OPN (100 ng/ml) and with SU11274 (5 μM) for 24 h and the expression of the indicated proteins were detected by Western blot analysis. […]
as §3
We next investigated the importance of c-Met activation in mediating LSF function. LSF-17 cells and QGY-7703 cells were treated with the chemical inhibitor of c-Met, SU11274 (5 μM), and cell viability and Matrigel invasion was monitored. […]

c-Met = target: T1, c-Met (Homo sapiens, UniProt P08581); assay: Western blot of c-Met activation (p-c-Met) in HepG3 cells; type: cell-based
T1 construct: endogenous in cells; host or cells: HepG3 cells; LSF-17 clone of HepG3 (stably overexpresses LSF, not c-Met)
T1 sequence (P08581 25-1390): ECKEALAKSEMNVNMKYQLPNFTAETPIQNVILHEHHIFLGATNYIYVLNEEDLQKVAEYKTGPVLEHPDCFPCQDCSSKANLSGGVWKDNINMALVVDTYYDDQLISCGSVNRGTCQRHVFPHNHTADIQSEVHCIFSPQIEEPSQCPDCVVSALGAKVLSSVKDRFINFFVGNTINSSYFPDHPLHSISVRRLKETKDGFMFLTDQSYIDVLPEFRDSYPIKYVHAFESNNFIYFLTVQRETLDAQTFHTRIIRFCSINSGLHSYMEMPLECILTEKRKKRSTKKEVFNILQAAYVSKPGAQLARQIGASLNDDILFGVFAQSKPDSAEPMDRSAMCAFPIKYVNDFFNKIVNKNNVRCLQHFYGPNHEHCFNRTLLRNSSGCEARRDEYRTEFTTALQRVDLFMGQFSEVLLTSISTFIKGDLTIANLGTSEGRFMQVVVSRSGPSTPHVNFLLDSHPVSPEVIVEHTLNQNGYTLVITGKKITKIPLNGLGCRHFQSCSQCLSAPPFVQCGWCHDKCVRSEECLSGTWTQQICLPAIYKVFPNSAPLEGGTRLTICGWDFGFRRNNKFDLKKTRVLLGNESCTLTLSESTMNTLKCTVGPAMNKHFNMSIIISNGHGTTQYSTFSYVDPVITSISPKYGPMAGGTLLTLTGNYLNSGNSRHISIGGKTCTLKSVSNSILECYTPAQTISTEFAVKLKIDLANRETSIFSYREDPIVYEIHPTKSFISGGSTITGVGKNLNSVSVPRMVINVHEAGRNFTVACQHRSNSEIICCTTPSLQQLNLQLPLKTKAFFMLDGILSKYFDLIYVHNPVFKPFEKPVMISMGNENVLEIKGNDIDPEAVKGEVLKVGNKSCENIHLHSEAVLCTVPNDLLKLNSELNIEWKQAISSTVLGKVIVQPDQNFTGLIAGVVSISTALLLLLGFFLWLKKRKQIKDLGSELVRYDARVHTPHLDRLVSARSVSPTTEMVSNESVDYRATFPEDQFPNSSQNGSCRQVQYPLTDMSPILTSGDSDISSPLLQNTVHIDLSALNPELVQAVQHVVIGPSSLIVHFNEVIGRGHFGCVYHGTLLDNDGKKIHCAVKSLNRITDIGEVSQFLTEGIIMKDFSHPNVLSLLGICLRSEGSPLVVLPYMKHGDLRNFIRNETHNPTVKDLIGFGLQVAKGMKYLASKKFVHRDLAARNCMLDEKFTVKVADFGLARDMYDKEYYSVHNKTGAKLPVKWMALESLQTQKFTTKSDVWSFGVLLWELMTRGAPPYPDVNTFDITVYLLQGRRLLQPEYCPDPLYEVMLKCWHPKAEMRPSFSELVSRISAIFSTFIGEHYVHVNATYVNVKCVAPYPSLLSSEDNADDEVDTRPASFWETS
Procedure: FIGS. 10A-D. OPN activates c-Met. A. HepG3 cells were treated with OPN (100 ng/ml) for the indicated time points and p-c-Met and total c-Met levels were analyzed by Western blot analysis. B. Expression of OPN and p-c-Met was determined by immunohistochemical analysis in FFPE sections of normal liver and matched HCC. A representative figure is shown from one patient. C. Statistical correlation between OPN and phospho-c-Met levels in 50 human HCC patients analyzed by Pearson's test. D. Left panel: LSF-17consh-15 (Consh-15) is a clone of LSF-17 cells that stably expresses control scrambled shRNA and LSF-17-OPNsh-6 (OPNsh-6) and LSF-17-OPNsh-18 (OPNsh-18) are clones of LSF-17 cells stably expressing OPN shRNA. The expression of the indicated proteins was detected by Western blot analysis. Right panel, LSF-17 clone of HepG3 cells were treated with normal IgG (mouse and rabbit; Santa Cruz), anti-αvβ3 integrin antibody (mouse; Millipore) or anti-CD44 antibody (rabbit; Santa Cruz) at a concentration of 20 μg/ml for 24 h and the expression of the indicated proteins was detected by Western blot analysis.
as §1, §4
To confirm the link between OPN and c-Met, HepG3 cells were treated with OPN (100 ng/ml) for 24 h in the presence or absence of SU11274. […] Treatment with OPN increased p-Akt/Akt ratio to 1.42 which was decreased to 0.63 upon SU11274 treatment.

parental HepG3 cells = assay: Cell viability, parental HepG3 cells; type: cell-based, human; conditions: SU11274 treatment; data not shown
Procedure: Primary rat hepatocytes were isolated and cultured as described (19). SNU-423 cells were obtained from ATCC and cultured as instructed. HepG3, QGY-7703, Hep3B, HuH7, Focus and HEK-293 cells were cultured as described (20). Cell viability was determined by standard MTT assays as described (5). Colony formation, anchorage-independent growth in soft agar and matrigel invasion assays were performed exactly as described (5). We next investigated the importance of c-Met activation in mediating LSF function. LSF-17 cells and QGY-7703 cells were treated with the chemical inhibitor of c-Met, SU11274 (5 μM), and cell viability and Matrigel invasion was monitored. […] For invasion assay cells were treated with SU11274 for 24 h, a time point when no significant effect on cell viability was observed.

ERK = assay: Western blot of ERK activation in HepG3 cells; type: cell-based, human; conditions: 24 h
Procedure: as §1
as §4, with “Sigma). […]” for “Sigma).”

QGY-7703 cells [3] = assay: Cell viability by standard MTT assay, QGY-7703 cells; type: cell-based, human; conditions: SU11274 5 μM
Procedure: as §1, §2, §3

LSF-17 cells [4] = assay: Cell viability by standard MTT assay, LSF-17 cells; type: cell-based, human; conditions: SU11274 5 μM
Procedure: as §1, with “(p<0.05). Primary rat hepatocytes were isolated and cultured as described (19). SNU-423 cells were obtained from ATCC and cultured as instructed. HepG3, QGY-7703, Hep3B, HuH7, Focus and HEK-293 cells were cultured as described (20). Cell viability was determined by standard MTT assays as described (5). Colony formation, anchorage-independent growth in soft agar and matrigel invasion assays were performed exactly as described (5). […] LSF-17 cells and QGY-7703 cells were treated with the chemical inhibitor of c-Met, SU11274 (5 μM), and cell viability and Matrigel invasion was monitored. […]” for “(p<0.05).”

CD44 and c-Met = target: T2, CD44 and c-Met (Homo sapiens, UniProt P16070); assay: Co-immunoprecipitation of CD44 and c-Met in HepG3 cells; type: cell-based
T2 construct: endogenous in cells; host or cells: HepG3 cells (lysates)
T2 sequence (P16070 21-742): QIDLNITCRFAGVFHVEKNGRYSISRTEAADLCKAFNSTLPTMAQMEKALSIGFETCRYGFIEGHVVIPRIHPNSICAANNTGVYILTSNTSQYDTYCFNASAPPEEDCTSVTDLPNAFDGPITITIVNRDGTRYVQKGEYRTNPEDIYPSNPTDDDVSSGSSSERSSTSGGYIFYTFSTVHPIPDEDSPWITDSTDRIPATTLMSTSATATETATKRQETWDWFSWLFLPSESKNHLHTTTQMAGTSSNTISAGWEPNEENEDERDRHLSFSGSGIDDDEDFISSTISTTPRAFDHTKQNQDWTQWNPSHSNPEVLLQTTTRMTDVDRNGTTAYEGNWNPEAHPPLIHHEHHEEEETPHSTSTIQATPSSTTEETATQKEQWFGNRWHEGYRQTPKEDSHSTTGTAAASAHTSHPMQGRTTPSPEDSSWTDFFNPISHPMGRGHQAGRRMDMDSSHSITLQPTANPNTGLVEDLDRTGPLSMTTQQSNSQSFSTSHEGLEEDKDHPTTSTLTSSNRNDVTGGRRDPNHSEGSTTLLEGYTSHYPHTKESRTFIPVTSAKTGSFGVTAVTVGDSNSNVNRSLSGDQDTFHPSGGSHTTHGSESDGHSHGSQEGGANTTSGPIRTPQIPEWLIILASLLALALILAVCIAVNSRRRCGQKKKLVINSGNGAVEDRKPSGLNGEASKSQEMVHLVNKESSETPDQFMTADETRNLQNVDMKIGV
T2 sequence (P08581 308-1390 partner limits assumed): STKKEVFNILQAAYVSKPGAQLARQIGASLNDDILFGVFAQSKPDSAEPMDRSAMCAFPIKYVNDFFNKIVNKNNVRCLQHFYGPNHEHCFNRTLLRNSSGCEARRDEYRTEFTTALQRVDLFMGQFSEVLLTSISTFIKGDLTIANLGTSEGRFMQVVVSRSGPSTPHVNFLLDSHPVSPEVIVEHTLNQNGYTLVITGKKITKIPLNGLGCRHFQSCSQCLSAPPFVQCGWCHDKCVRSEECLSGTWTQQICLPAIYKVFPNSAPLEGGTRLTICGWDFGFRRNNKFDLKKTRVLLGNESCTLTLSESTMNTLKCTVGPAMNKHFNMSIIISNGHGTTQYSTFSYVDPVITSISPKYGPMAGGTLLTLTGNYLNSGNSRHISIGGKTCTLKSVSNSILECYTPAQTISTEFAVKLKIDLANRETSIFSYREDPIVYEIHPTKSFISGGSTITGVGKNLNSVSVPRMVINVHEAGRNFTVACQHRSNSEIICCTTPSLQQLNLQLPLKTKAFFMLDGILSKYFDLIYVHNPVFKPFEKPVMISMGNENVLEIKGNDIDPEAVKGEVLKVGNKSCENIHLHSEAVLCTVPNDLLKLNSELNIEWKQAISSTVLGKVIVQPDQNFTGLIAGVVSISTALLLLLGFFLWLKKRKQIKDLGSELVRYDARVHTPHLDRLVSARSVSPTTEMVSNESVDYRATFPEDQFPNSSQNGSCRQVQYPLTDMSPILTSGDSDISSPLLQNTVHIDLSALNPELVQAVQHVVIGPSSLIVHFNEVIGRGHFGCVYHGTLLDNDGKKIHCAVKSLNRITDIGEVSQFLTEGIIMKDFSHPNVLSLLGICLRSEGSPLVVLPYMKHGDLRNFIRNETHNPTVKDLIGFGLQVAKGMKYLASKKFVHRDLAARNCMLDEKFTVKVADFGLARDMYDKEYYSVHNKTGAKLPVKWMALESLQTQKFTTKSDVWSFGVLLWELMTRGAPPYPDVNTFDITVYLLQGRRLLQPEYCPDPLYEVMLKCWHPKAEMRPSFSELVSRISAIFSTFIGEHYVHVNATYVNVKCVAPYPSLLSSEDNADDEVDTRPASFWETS
T2 sequence (P08581 25-307 partner limits assumed): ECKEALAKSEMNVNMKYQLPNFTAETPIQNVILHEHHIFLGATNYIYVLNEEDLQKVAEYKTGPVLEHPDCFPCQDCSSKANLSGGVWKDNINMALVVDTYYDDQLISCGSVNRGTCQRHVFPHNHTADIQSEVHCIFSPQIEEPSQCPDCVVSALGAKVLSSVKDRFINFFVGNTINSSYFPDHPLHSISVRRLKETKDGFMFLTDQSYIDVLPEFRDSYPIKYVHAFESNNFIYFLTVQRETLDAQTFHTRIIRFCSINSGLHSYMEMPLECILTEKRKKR
Procedure: FIGS. 11A-E. OPN facilitates c-Met activation via CD44 receptor. A. Left panel, HepG3 cells were cultured in serum-free conditions. Right panel, HepG3 cells were cultured in serum-containing medium and untreated or treated with OPN (100 ng/ml) for 24 h. Cell lysates were subjected to immunoprecipitation by anti-c-Met antibody and immunoblotting with anti-CD44, anti-[…] integrin and anti-c-Met antibodies. B. The culture conditions are the same as in A. Immunoprecipitation was done with anti-CD44 antibody and immunoblotting was done with anti-c-Met and anti-CD44 antibody. C. HepG3 cell were cultured in serum-free conditions and then untreated or treated with OPN (100 ng/ml) for 24 h. Immunoprecipitation was done with anti-CD44 antibody and immunoblotting was done with anti-p-c-Met or anti-CD44 antibodies. D. Lysates from LSF-17 and QGY-7703 cells were subjected to immunoprecipitation by anti-c-Met antibody and immunoblotting by anti-CD44, anti-αvβ3 integrin and anti-c-Met antibodies. E. Lysates from LSF-17 and QGY-7703 cells were subjected to immunoprecipitation by anti-CD44 antibody and immunoblotting by anti-c-Met, anti-p-c-Met and anti-CD44 antibodies. The bottom panel serves as inputs for D and E. IgG was used as a control in all the experiments.
We next explored the molecular mechanism of c-Met activation by OPN using co-immunoprecipitation analysis. […]

[5] = treated 24 h, then SU11274-free during invasion assay
[6] = co-treatment with SU11274 5 μM, 24 h

inhibition of basal and OPN-induced activation of c-Met (c-Met; [6]): significant inhibition
Compound: Cc1[nH]c(/C=C2\C(=O)Nc3ccc(S(=O)(=O)N(C)c4cccc(Cl)c4)cc32)c(C)c1C(=O)N1CCN(C)CC1 [SU11274]
Matrigel invasion (QGY-7703 cells [1]; SU11274 5 μM, 24 h): significantly inhibited
Matrigel invasion after removal of SU11274 (QGY-7703 cells [1]; [5]): significantly rescued the cells from inhibition of invasion
p-Akt/Akt ratio (Akt; OPN 100 ng/ml plus SU11274, 24 h): 0.63
p-Akt/Akt ratio (Akt; SU11274 alone (basal), control group 0.58): 0.05
inhibition of basal and OPN-induced activation of Akt (Akt; [6]): significant inhibition
Matrigel invasion (LSF-17 cells [2]; SU11274 5 μM, 24 h): significantly inhibited
Matrigel invasion after removal of SU11274 (LSF-17 cells [2]; [5]): significantly rescued the cells from inhibition of invasion
viability of parental HepG3 cells (parental HepG3 cells): did not affect the viability
inhibition of basal and OPN-induced activation of ERK (ERK; SU11274 5 μM): partial inhibition
cell viability (MTT) (QGY-7703 cells [3]): significantly decreased
cell viability (MTT) (LSF-17 cells [4]): significantly decreased

activation of c-Met (c-Met; OPN 100 ng/ml, 24 h): significantly activated
total c-Met level (c-Met; OPN treatment): did not change
activated c-Met level at 6 h post-treatment (c-Met; purified OPN 100 ng/ml): remained higher than basal level
time of peak level of c-Met activation post-treatment (c-Met; purified OPN 100 ng/ml): 30 min
binding affinity between c-Met and CD44 (CD44 and c-Met; serum-containing culture, OPN 100 ng/ml): did not affect the binding affinity
association between CD44 and phospho-c-Met (CD44 and c-Met; serum-free conditions, OPN 100 ng/ml 24 h): significantly increased
Compound: OPN: purified osteopontin, a secreted protein, added to cells at 100 ng/ml
activation of Akt (Akt; OPN 100 ng/ml, 24 h): significantly activated
p-Akt/Akt ratio (Akt; OPN 100 ng/ml, 24 h, control group 0.58): 1.42
activation of ERK (ERK; OPN 100 ng/ml): significantly activated
